# Reference: PMC7738856, “Inter and intra-tumor somatostatin receptor 2 heterogeneity influences peptide receptor radionuclide therapy response” (Theranostics, 2021)
# Experiments:
# NCI-H69 tumors [1] = test: TUNEL assay on tumor sections; format: in vivo, BALB-c/nude mice; settings: 30 MBq, n = 4; for TUNEL positive areas (average): 25 fields of view per tumor
# Method: BALB-c/nude mice were engrafted subcutaneously with 5 x 10^6 NCI-H69 cells in 200 µl Hanks Balanced Salt Solution (HBSS) (Gibco, 14065056) containing 33,3% Matrigel (Corning, 354248). […] Organs were put in a gamma-counter for measurement of radioactive uptake and then fixed in formalin for 1 day at RT and stored in 70% ethanol until they were embedded in paraffin. Uninjected animals were used as control (n = 4). Tissue sections of 4 µm were deparaffinized and rehydrated. TUNEL assay was performed using the In Situ Cell Death Detection Kit, Fluorescein (Roche, 11684795910) according to manufacturer's instructions. 53BP1 and γH2AX focus formation was imaged with a Leica SP5 confocal microscope (Leica) using Z-stack acquisition. For tile-scan analyses a LSM700 confocal microscope (Zeiss) was used. Tiles were stitched, thresholded and quantified using ImageJ.
# NCI-H69 tumors [2] = test: Tumor growth and survival, NCI-H69 xenografts; format: in vivo, BALB-c/nude mice; settings: n = 8
# Method: (§1) Animal experiments were approved by the Animal Welfare Committee of the Erasmus MC and were conducted in accordance with European guidelines. Animal experiments included a time series for analyses of radiobiological parameters in NCI-H69 xenografts and survival cohorts with NCI-H69 or CA20948 xenografts.
# (§2) BALB-c/nude mice were engrafted subcutaneously with 5 x 10^6 NCI-H69 cells in 200 µl HBSS containing 33,3% Matrigel or with 5 x 10^6 CA20948 cells in 200 µl HBSS. Mice with NCI-H69 tumors (n = 8) were injected when tumor volumes reached 697 ± 256 mm^3 and mice with CA20948 tumors (n = 9) when tumor reached 318 ± 216 mm^3. Both groups were compared to vehicle injected counterparts (n = 8 and n = 6, respectively). Tumor volumes were measured three times per week p.i. Mice were sacrificed when tumor volumes reached the humane endpoint of 2000 mm^3. Tumors were fixed in formalin for 1 day at RT and stored in 70% ethanol until they were embedded in paraffin.
# NCI-H69 cells = test: 53BP1 and γH2AX foci in cells after in vitro treatment; format: cell-based
# Method: NCI-H69 cells (ATCC) were cultured in Rosewell Park Medium Institute […] medium (RPMI-1638) (Sigma-Aldrich) supplemented with penicillin (50 units/mL), streptomycin (50 µg/mL) (Pen/Strep) and 10% fetal calf serum (FCS). CA20948 [14] cells were cultured in Dulbecco's Modified Eagle's Medium (DMEM) (Gibco) supplemented with Pen/Strep and 10% FCS. Cells were cultured at 37 °C and 5% CO2. […] NCI-H69 cells were spun down on a glass slide using a cytospin centrifuge (Rotofix 32A, Hettich) for 6 minutes at 347 g at room temperature (RT). CA20948 cells were washed and fixed on coverslips. Fixation was done using 2% paraformaldehyde (PFA) for 20 minutes at RT and samples were stained according to protocol (see below). Cells were IF stained as previously described. Briefly, tissue sections were deparaffinized as described above. Then antigen retrieval was performed by boiling slides for 20 minutes in pH 6 (for cytoplasmic antigens) or pH 9 (for nuclear antigens) antigen retrieval buffer (DAKO) and cooling down to RT. […] Tiles were stitched, thresholded and quantified using ImageJ. ImageJ was utilized to apply the same local threshold (default for DAPI, MaxEntropy for SST2) to all images in order to segment nuclei or quantify DAPI signal and quantify IF signal. Foci were quantified using the Find Maxima function.
# NCl-H69 xenografted mice = system: NCl-H69 xenografted mice; design: species or system BALB-c/nude mice; settings: mouse, in vivo, iv
# Method: BALB-c/nude mice were engrafted subcutaneously with 5 x 10^6 NCI-H69 cells in 200 µl Hanks Balanced Salt Solution (HBSS) (Gibco, 14065056) containing 33,3% Matrigel (Corning, 354248). […] Mice were sacrificed by cervical dislocation and analyzed at 1 h, 1, 2, 3, 4, 5, 7, 9, 11 and 14 days post injection (p.i.). Organs were put in a gamma-counter for measurement of radioactive uptake and then fixed in formalin for 1 day at RT and stored in 70% ethanol until they were embedded in paraffin. Uninjected animals were used as control (n = 4).
# The biodistribution data were analyzed to determine the kinetics of the activity in organs and tumors. The measured activity data as a function of time were fitted with single or double exponential curves using the least-square regression method with Graphpad Prism version 5 (graphpad.com). Decisions on to use a single or a double exponential curve was based on the (corrected) Akaike's information criterion. The time-activity curves were integrated over time to determine the time-integrated activity coefficients after folding in the lutetium-177 decay function. Absorbed doses in all organs and in the tumor were calculated by using the MIRD equation with the lutetium-177 S-values for a 22 g mouse Moby phantom, kindly provided by Dr Erik Larsson.
# NCI-H69 tumors [3] = test: 53BP1 and γH2AX foci (immunofluorescence) in tumor sections; format: in vivo, BALB-c/nude mice; settings: 2 days p.i.
# Method: BALB-c/nude mice were engrafted subcutaneously with 5 x 10^6 NCI-H69 cells in 200 µl Hanks Balanced Salt Solution (HBSS) (Gibco, 14065056) containing 33,3% Matrigel (Corning, 354248). […] Organs were put in a gamma-counter for measurement of radioactive uptake and then fixed in formalin for 1 day at RT and stored in 70% ethanol until they were embedded in paraffin. Uninjected animals were used as control (n = 4). […] Secondary antibodies used are donkey-anti-rabbit IgG Alexa Fluor 594 (Thermo Fisher, A-11078; 1:500) and donkey-anti-mouse IgG Alexa Fluor 488 (Thermo Fisher; A-11005; 1:500). For immunohistochemical stainings (IHC) Ki-67 (Abcam, ab15580; 1:200) was used. Here, the secondary antibody used is Peroxidase donkey-anti-rabbit IgG (Jackson Immunoresearch, 711-035-152; 1:2000). Cells were IF stained as previously described. Briefly, tissue sections were deparaffinized as described above. Then antigen retrieval was performed by boiling slides for 20 minutes in pH 6 (for cytoplasmic antigens) or pH 9 (for nuclear antigens) antigen retrieval buffer (DAKO) and cooling down to RT. Tissues were permeabilized with PBS+0.5% Triton (PBS(T)) at RT and blocked with 3% BSA in PBS(T) at RT. Sections were incubated with primary antibodies overnight at 4 °C in block buffer and with secondary antibodies for 60 minutes at RT. Mounting was done using Vectashield containing DAPI (Vector labs, H-1200). 53BP1 and γH2AX focus formation was imaged with a Leica SP5 confocal microscope (Leica) using Z-stack acquisition. For tile-scan analyses a LSM700 confocal microscope (Zeiss) was used. Tiles were stitched, thresholded and quantified using ImageJ. ImageJ was utilized to apply the same local threshold (default for DAPI, MaxEntropy for SST2) to all images in order to segment nuclei or quantify DAPI signal and quantify IF signal. Foci were quantified using the Find Maxima function.
# [4] = system: CA20948 and NCI-H69 cells; test: In vitro uptake of radioactivity (γ-counts) in cells; format: cell-based; settings: 1 MBq/mL, 4 h incubation, n = 3 experiments
# Method: NCI-H69 cells (ATCC) were cultured in Rosewell Park Medium Institute […] medium (RPMI-1638) (Sigma-Aldrich) supplemented with penicillin (50 units/mL), streptomycin (50 µg/mL) (Pen/Strep) and 10% fetal calf serum (FCS). CA20948 [14] cells were cultured in Dulbecco's Modified Eagle's Medium (DMEM) (Gibco) supplemented with Pen/Strep and 10% FCS. Cells were cultured at 37 °C and 5% CO2.
# NCI-H69 cells were spun down on a glass slide using a cytospin centrifuge (Rotofix 32A, Hettich) for 6 minutes at 347 g at room temperature (RT). CA20948 cells were washed and fixed on coverslips. Fixation was done using 2% paraformaldehyde (PFA) for 20 minutes at RT and samples were stained according to protocol (see below).
# S4. [177Lu]Lu-DO T A -TATE uptake in SST2hi g h and SST2low NCI-H69 cells. (A) lutetium- 177 uptake measured by γ-counts in NCI-H69 and CA20948 cells after 4 hours of incubation (experiment n = 3).
# **p < 0.01 (B) Representative IF images of SST2 after [ 177Lu]Lu-DOT A- TATE treatment. Arrows indicate internalization and accumulation of SST 2.
# S5. Additional foci quantifications in SST2hi g h and SST2low cells. γH2AX foci quantification in SST2high and SST 2lo w NC I -H69 cells 2 days after [177Lu]Lu-DOT A -TATE treatment. Error bars indicate […]
# CA20948 tumors = test: Tumor growth and survival, CA20948 xenografts; format: in vivo, BALB-c/nude mice; settings: treated CA20948 bearing mice, 30 MBq, n = 9
# Method: as §1, §2
# NCl-H69 tumors = test: Ki-67 immunohistochemistry of tumor sections; format: in vivo, BALB-c/nude mice
# Method: BALB-c/nude mice were engrafted subcutaneously with 5 x 10^6 NCI-H69 cells in 200 μl Hanks Balanced Salt Solution (HBSS) (Gibco, 14065056) containing 33,3% Matrigel (Corning, 354248). […] Organs were put in a gamma-counter for measurement of radioactive uptake and then fixed in formalin for 1 day at RT and stored in 70% ethanol until they were embedded in paraffin. Uninjected animals were used as control (n = 4). […] Secondary antibodies used are donkey-anti-rabbit IgG Alexa Fluor 594 (Thermo Fisher, A-11078; 1:500) and donkey-anti-mouse IgG Alexa Fluor 488 (Thermo Fisher; A-11005; 1:500). For immunohistochemical stainings (IHC) Ki-67 (Abcam, ab15580; 1:200) was used. Here, the secondary antibody used is Peroxidase donkey-anti-rabbit IgG (Jackson Immunoresearch, 711-035-152; 1:2000). Tissue sections of 4 μm were deparaffinized and rehydrated. Samples were then incubated in 3% H2O2 (Honeywell, 95299) in methanol (Honeywell, 32213-2.5l) for 20 minutes at RT. Slides were washed with tap water and boiled in pH 6 Antigen Retrieval buffer for 20 minutes. Slides were incubated in blocking solution (PBS 5%BSA), following with the primary antibody in blocking solution overnight at 4 °C and with the secondary antibody in blocking solution for 90 minutes at RT. […] Quantification was performed in ImageJ by using particle analysis after.
smiles,measurement,setting,value
"C[C@@H](O)[C@H](NC(=O)[C@@H]1CSSC[C@H](NC(=O)[C@@H](Cc2ccccc2)NC(=O)CN2CCN(CC(=O)O)CCN(CC(=O)O)CCN(CC(=O)O)CC2)C(=O)N[C@@H](Cc2ccc(O)cc2)C(=O)N[C@H](Cc2c[nH]c3ccccc23)C(=O)N[C@@H](CCCCN)C(=O)N[C@@H]([C@@H](C)O)C(=O)N1)C(=O)O [[^177Lu]Lu-DOTA-TATE, [^177Lu]Lu-DOTA-[Tyr^3]octreotate, metal not drawn]",TUNEL positive areas (average),NCI-H69 tumors [1]; 4 days p.i.,50%
same,TUNEL positive areas (average),NCI-H69 tumors [1]; 5 days p.i.,47%
same,fraction of TUNEL positive cells (average),NCI-H69 tumors [1]; 14 days after treatment,26%
same,tumor volume as % of the starting volume,"NCI-H69 tumors [2]; 14 days p.i., then regrowth, 30 MBq single injection",71%
same,median survival,"NCI-H69 tumors [2]; treated NCI-H69 bearing mice, 30 MBq",34 days
same,level of 53BP1 and γH2AX foci per cell versus non-treated cells,"NCI-H69 cells; 1 day post treatment, 1 MBq/mL for 4 h at 37 °C",significant increase
same,γH2AX foci in SST2 high versus SST2 low NCI-H69 cells in vitro,"NCI-H69 cells; 2 days after incubation, 1 MBq/mL for 4 h",significant higher number
same,"absorbed dose, kidney",NCl-H69 xenografted mice,3.5 ± 0.12 Gy
same,"absorbed dose, other organs",NCl-H69 xenografted mice,0.22-1.48 Gy
same,"absorbed dose, tumor",NCl-H69 xenografted mice,10.08 ± 0.35 Gy
same,"γH2AX foci in SST2 high cells, treated versus non-treated SST2 high regions",NCI-H69 tumors [3]; n = 4,significant increase
same,γH2AX foci in SST2 high versus SST2 low cells in tumors from treated mice,NCI-H69 tumors [3]; n = 4,significantly higher number
same,"γH2AX foci in SST2 low cells, treated versus non-treated mice",NCI-H69 tumors [3]; n = 4,no significant increase
same,increase in the number of γH2AX foci,NCI-H69 tumors [3]; versus NT controls,5 fold
same,uptake of radioactivity in CA20948 compared to NCI-H69 cells,[4],3 fold
same,median survival,CA20948 tumors,54 days
same,Ki-67 positive cells,"NCl-H69 tumors; 2 days after treatment, significantly increased",74.13%
same,Ki-67 positive (cycling) cells in non-apoptotic regions,"NCl-H69 tumors; all samples regardless of therapy, except 2 days after treatment",60.96 ± 5.32%
